Assay results as given in patent US9073855B2, “BCL-2 selective apoptosis-inducing agents for the treatment of cancer and immune diseases” (AbbVie Inc., priority 2008, dated 2015).

Legend:
GST-Bcl-XL = GST-Bcl-XL (Homo sapiens, UniProt Q07817); experiment: TR-FRET binding assay, GST-Bcl-XL with F-Bak peptide probe; settings: TR-FRET Binding Affinity, GST-Bcl-XL, F-Bak peptide probe
How it was run: (§1)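 Ki was derived with Wang's equation for competitive binding of two ligands. The read-out was time-resolved fluorescence after a 3 h room-temperature incubation, using a Tb-labelled antibody donor and the F-Bak peptide acceptor (excitation 340/35 nm). Test compounds entered as DMSO serial dilutions starting at 50 μM, which was the 2× concentration.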

GST-Bcl-2 = GST-Bcl-2 (Homo sapiens, UniProt P10415); experiment: TR-FRET binding assay, GST-Bcl-2 with F-Bak peptide probe; settings: TR-FRET Binding Affinity, GST-Bcl-2, F-Bak peptide probe
How it was run: as §1

FL5.12/Bcl-2 cells = experiment: FL5.12/Bcl-2 cell viability assay under IL-3 withdrawal (CellTitre Glo); type: cell-based, murine; settings: Mus musculus, IL-3 withdrawn 48 hrs, then 24 hrs with compound
How it was run: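 Murine IL-3-dependent FL5.12 cells stably overexpressing Bcl-2 were deprived of IL-3 (WEHI-3B conditioned medium) for 48 h, then exposed to various compound concentrations for 24 h at 37 °C. Viability read by CellTiter-Glo luminescence.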

Chain of GST-Bcl-XL (Q07817 whole entry): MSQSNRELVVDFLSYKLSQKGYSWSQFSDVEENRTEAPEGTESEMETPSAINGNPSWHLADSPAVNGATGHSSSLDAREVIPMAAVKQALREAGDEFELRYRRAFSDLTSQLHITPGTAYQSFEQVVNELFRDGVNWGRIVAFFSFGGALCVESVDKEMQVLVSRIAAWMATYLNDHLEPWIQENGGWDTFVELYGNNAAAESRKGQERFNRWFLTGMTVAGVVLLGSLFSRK
Chain of GST-Bcl-2 (P10415 whole entry): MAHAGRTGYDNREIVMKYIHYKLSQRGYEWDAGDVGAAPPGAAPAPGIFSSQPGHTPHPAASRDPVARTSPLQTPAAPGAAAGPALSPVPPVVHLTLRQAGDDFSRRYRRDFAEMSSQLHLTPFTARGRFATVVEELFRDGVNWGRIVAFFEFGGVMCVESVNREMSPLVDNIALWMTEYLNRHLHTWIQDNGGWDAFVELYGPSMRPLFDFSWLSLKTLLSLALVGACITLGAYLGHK

Row | Compound | Ki (GST-Bcl-XL) | Ki (GST-Bcl-2) | EC50 (FL5.12/Bcl-2 cells)
1 | CC(c1ccccc1-c1ccc(Cl)cc1)N1CCN(c2ccc(C(=O)NS(=O)(=O)c3ccc(NCCCN4CCOCC4)c([N+](=O)[O-])c3)c(Oc3cccc4[nH]ccc34)c2)CC1 (stereo not drawn) [Example 247, 4-{4-[1-(4′-chloro-1,1′-biphenyl-2-yl)ethyl]piperazin-1-yl}-2-(1H-indol-4-yloxy)-N-({4-[(3-morpholin-4-ylpropyl)amino]-3-nitrophenyl}sulfonyl)benzamide] | 27.3 nM | 0.188 nM | 16.1 nM
2 | O=C(NS(=O)(=O)c1ccc(NCC2CCOCC2)c([N+](=O)[O-])c1)c1ccc(N2CCN(CC3=C(c4ccc(Cl)cc4)CCC(O)C3)CC2)cc1Oc1ccc2[nH]ccc2c1 (stereo not drawn) [Example 248, 4-(4-{[2-(4-chlorophenyl)-5-hydroxycyclohex-1-en-1-yl]methyl}piperazin-1-yl)-2-(1H-indol-5-yloxy)-N-({3-nitro-4-[(tetrahydro-2H-pyran-4-ylmethyl)amino]phenyl}sulfonyl)benzamide] | 155 nM | 0.013 nM | 49.8 nM
3 | O=C(NS(=O)(=O)c1ccc(NCC2CCOCC2)c([N+](=O)[O-])c1)c1ccc(N2CCN(CC3=C(c4ccc(Cl)cc4)CCC(N4CCOCC4)C3)CC2)cc1Oc1ccc2[nH]ccc2c1 (stereo not drawn) [Example 249, 4-(4-{[2-(4-chlorophenyl)-5-morpholin-4-ylcyclohex-1-en-1-yl]methyl}piperazin-1-yl)-2-(1H-indol-5-yloxy)-N-({3-nitro-4-[(tetrahydro-2H-pyran-4-ylmethyl)amino]phenyl}sulfonyl)benzamide] | > 660 nM | 0.09 nM | 41.2 nM
4 | CC1(C)CCC(CN2CCN(c3ccc(C(=O)NS(=O)(=O)c4ccc(NCC5(N)CCCCC5)c([N+](=O)[O-])c4)c(Oc4ccc5[nH]ccc5c4)c3)CC2)=C(c2ccc(Cl)cc2)C1 [Example 250, N-[(4-{[(1-aminocyclohexyl)methyl]amino}-3-nitrophenyl)sulfonyl]-4-(4-{[2-(4-chlorophenyl)-4,4-dimethylcyclohex-1-en-1-yl]methyl}piperazin-1-yl)-2-(1H-indol-5-yloxy)benzamide] | 215 nM | 0.266 nM | 79.5 nM
5 | CC1(C)CCC(CN2CCN(c3ccc(C(=O)NS(=O)(=O)c4ccc(NCCN5CCCC5=O)c([N+](=O)[O-])c4)c(Oc4ccc5[nH]ccc5c4)c3)CC2)=C(c2ccc(Cl)cc2)C1 [Example 251, 4-(4-{[2-(4-chlorophenyl)-4,4-dimethylcyclohex-1-en-1-yl]methyl}piperazin-1-yl)-2-(1H-indol-5-yloxy)-N-[(3-nitro-4-{[2-(2-oxopyrrolidin-1-yl)ethyl]amino}phenyl)sulfonyl]benzamide] | 472 nM | 0.328 nM | 78.1 nM
6 | CC(c1ccccc1-c1ccc(Cl)cc1)N1CCN(c2ccc(C(=O)NS(=O)(=O)c3ccc(NCC4CCOCC4)c([N+](=O)[O-])c3)c(Oc3ccc4[nH]ccc4c3)c2)CC1 (stereo not drawn) [Example 252, 4-{4-[1-(4′-chloro-1,1′-biphenyl-2-yl)ethyl]piperazin-1-yl}-2-(1H-indol-5-yloxy)-N-({3-nitro-4-[(tetrahydro-2H-pyran-4-ylmethyl)amino]phenyl}sulfonyl)benzamide] | > 660 nM | 0.077 nM | 6.62 nM
7 | CC(C1=C(c2ccc(Cl)cc2)CC(C)(C)CC1)N1CCN(c2ccc(C(=O)NS(=O)(=O)c3ccc(NCC4CCOCC4)c([N+](=O)[O-])c3)c(Oc3ccc4[nH]ccc4c3)c2)CC1 (stereo not drawn) [Example 253, 4-(4-{1-[2-(4-chlorophenyl)-4,4-dimethylcyclohex-1-en-1-yl]ethyl}piperazin-1-yl)-2-(1H-indol-5-yloxy)-N-({3-nitro-4-[(tetrahydro-2H-pyran-4-ylmethyl)amino]phenyl}sulfonyl)benzamide] | > 660 nM | 0.142 nM | 7.58 nM
8 | CC(C1=C(c2ccc(Cl)cc2)CC(C)(C)CC1)N1CCN(c2ccc(C(=O)NS(=O)(=O)c3ccc(NN4CCN(C)CC4)c([N+](=O)[O-])c3)c(Oc3ccc4[nH]ccc4c3)c2)CC1 (stereo not drawn) [Example 254, 4-(4-{1-[2-(4-chlorophenyl)-4,4-dimethylcyclohex-1-en-1-yl]ethyl}piperazin-1-yl)-2-(1H-indol-5-yloxy)-N-({4-[(4-methylpiperazin-1-yl)amino]-3-nitrophenyl}sulfonyl)benzamide] | 53.3 nM | 0.126 nM | 16.9 nM
9 | C[C@H](c1ccccc1-c1ccc(Cl)cc1)N1CCN(c2ccc(C(=O)NS(=O)(=O)c3ccc(NCC4CCOCC4)c([N+](=O)[O-])c3)c(Oc3cccc4[nH]ccc34)c2)CC1 [Example 255, 4-{4-[(1R)-1-(4′-chloro-1,1′-biphenyl-2-yl)ethyl]piperazin-1-yl}-2-(1H-indol-4-yloxy)-N-({3-nitro-4-[(tetrahydro-2H-pyran-4-ylmethyl)amino]phenyl}sulfonyl)benzamide] | > 660 nM | 7.83 nM | > 500 nM
10 | C[C@@H](c1ccccc1-c1ccc(Cl)cc1)N1CCN(c2ccc(C(=O)NS(=O)(=O)c3ccc(NCC4CCOCC4)c([N+](=O)[O-])c3)c(Oc3cccc4[nH]ccc34)c2)CC1 [Example 256, 4-{4-[(1S)-1-(4′-chloro-1,1′-biphenyl-2-yl)ethyl]piperazin-1-yl}-2-(1H-indol-4-yloxy)-N-({3-nitro-4-[(tetrahydro-2H-pyran-4-ylmethyl)amino]phenyl}sulfonyl)benzamide] | > 660 nM | 0.12 nM | 8.89 nM
11 | CC(C1=C(c2ccc(Cl)cc2)CC(C)(C)CC1)N1CCN(c2ccc(C(=O)NS(=O)(=O)c3ccc(NCCCN4CCOCC4)c([N+](=O)[O-])c3)c(Oc3ccc4[nH]ccc4c3)c2)CC1 (stereo not drawn) [Example 257, 4-(4-{1-[2-(4-chlorophenyl)-4,4-dimethylcyclohex-1-en-1-yl]ethyl}piperazin-1-yl)-2-(1H-indol-5-yloxy)-N-({4-[(3-morpholin-4-ylpropyl)amino]-3-nitrophenyl}sulfonyl)benzamide] | 17.1 nM | 0.171 nM | 9.34 nM
12 | CC(C1=C(c2ccc(Cl)cc2)CC(C)(C)CC1)N1CCN(c2ccc(C(=O)NS(=O)(=O)c3ccc(NC4CCN(C5CCOCC5)CC4)c([N+](=O)[O-])c3)c(Oc3ccc4[nH]ccc4c3)c2)CC1 (stereo not drawn) [Example 258, 4-(4-{1-[2-(4-chlorophenyl)-4,4-dimethylcyclohex-1-en-1-yl]ethyl}piperazin-1-yl)-2-(1H-indol-5-yloxy)-N-({3-nitro-4-[(1-tetrahydro-2H-pyran-4-ylpiperidin-4-yl)amino]phenyl}sulfonyl)benzamide] | 4.08 nM | 0.048 nM | 9.11 nM
13 | CC1(C)CCC(CN2CCN(c3ccc(C(=O)NS(=O)(=O)c4ccc(NCC5CCCCC5)c([N+](=O)[O-])c4)c(Oc4ccc5[nH]ccc5c4)c3)CC2)=C(c2ccc(Cl)cc2)C1 [Example 259, 4-(4-{[2-(4-chlorophenyl)-4,4-dimethylcyclohex-1-en-1-yl]methyl}piperazin-1-yl)-N-({4-[(cyclohexylmethyl)amino]-3-nitrophenyl}sulfonyl)-2-(1H-indol-5-yloxy)benzamide] | > 660 nM | 1.99 nM | > 500 nM
14 | CC1(C)CCC(CN2CCN(c3ccc(C(=O)NS(=O)(=O)c4ccc(NN5CCOCC5)c([N+](=O)[O-])c4)c(Oc4ccc5[nH]ccc5c4)c3)CC2)=C(c2ccc(Cl)cc2)C1 [Example 260, 4-(4-{[2-(4-chlorophenyl)-4,4-dimethylcyclohex-1-en-1-yl]methyl}piperazin-1-yl)-2-(1H-indol-5-yloxy)-N-{[4-(morpholin-4-ylamino)-3-nitrophenyl]sulfonyl}benzamide] | > 660 nM | 1.09 nM | 59.4 nM
15 | CC1(C)CCC(CN2CCN(c3ccc(C(=O)NS(=O)(=O)c4ccc(NN5CCOCC5)c([N+](=O)[O-])c4)c(Oc4cccc5[nH]ccc45)c3)CC2)=C(c2ccc(Cl)cc2)C1 [Example 262, 4-(4-{[2-(4-chlorophenyl)-4,4-dimethylcyclohex-1-en-1-yl]methyl}piperazin-1-yl)-2-(1H-indol-4-yloxy)-N-{[4-(morpholin-4-ylamino)-3-nitrophenyl]sulfonyl}benzamide] | > 660 nM | 3 nM | 176 nM
16 | CC1(C)CCC(CN2CCN(c3ccc(C(=O)NS(=O)(=O)c4ccc(NC5CCOCC5)c([N+](=O)[O-])c4)c(Oc4ccc5[nH]ccc5c4)c3)CC2)=C(c2ccc(Cl)cc2)C1 [Example 263, 4-(4-{[2-(4-chlorophenyl)-4,4-dimethylcyclohex-1-en-1-yl]methyl}piperazin-1-yl)-2-(1H-indol-5-yloxy)-N-{[3-nitro-4-(tetrahydro-2H-pyran-4-ylamino)phenyl]sulfonyl}benzamide] | > 660 nM | 0.316 nM | 28.4 nM
17 | CC1(C)CCC(CN2CCN(c3ccc(C(=O)NS(=O)(=O)c4ccc(NCC5(C)COC5)c([N+](=O)[O-])c4)c(Oc4ccc5[nH]ccc5c4)c3)CC2)=C(c2ccc(Cl)cc2)C1 [Example 264, 4-(4-{[2-(4-chlorophenyl)-4,4-dimethylcyclohex-1-en-1-yl]methyl}piperazin-1-yl)-2-(1H-indol-5-yloxy)-N-[(4-{[(3-methyloxetan-3-yl)methyl]amino}-3-nitrophenyl)sulfonyl]benzamide] | > 660 nM | 0.235 nM | 25.7 nM
18 | COC1CCC(Nc2ccc(S(=O)(=O)NC(=O)c3ccc(N4CCN(CC5=C(c6ccc(Cl)cc6)CC(C)(C)CC5)CC4)cc3Oc3ccc4[nH]ccc4c3)cc2[N+](=O)[O-])CC1 (stereo not drawn) [Example 265, 4-(4-{[2-(4-chlorophenyl)-4,4-dimethylcyclohex-1-en-1-yl]methyl}piperazin-1-yl)-2-(1H-indol-5-yloxy)-N-({4-[(4-methoxycyclohexyl)amino]-3-nitrophenyl}sulfonyl)benzamide] | > 660 nM | 1.7 nM | 244 nM
